Results on one molecule are retold here after paper PMC12630292 (Journal of Neural Transmission, 2025).

Where two headings read alike, the source gives them in different places.

A word on the Emax: it is the maximal effect, on the per cent scale that the assay sets.

The target of assay [1] is T1, D1 receptor (Homo sapiens, UniProt P21728). The assay can be described thus: cell-based. Particulars: read-out: Emax relative to dopamine, β-arrestin assay D1.
In assay [2] the target is D4 receptor (Homo sapiens, UniProt P21917). The assay can be described thus: cell-based. The settings on record: read-out: Emax relative to dopamine, β-arrestin assay D4.
Assay [3] deals with T1, D1 receptor. The assay can be described thus: cell-based. Particulars: read-out: Emax relative to dopamine, internalization assay D1.
Assay [4] relates to 5HT2A. The settings on record: ref Millan et al. [2002]; Newman-Tancredi et al. [2002]; cited from earlier work.
Assay [5] concerns the target D2L receptor (Homo sapiens, UniProt P14416). The assay can be described thus: cell-based. The settings on record: read-out: Emax relative to dopamine, β-arrestin assay D2L.
Assay [6] has as its target D2S receptor (Homo sapiens, UniProt P14416). The assay can be described thus: cell-based. The settings on record: read-out: Emax relative to dopamine, β-arrestin assay D2S.
The target in assay [7] is D3 receptor (Homo sapiens, UniProt P35462). The assay can be described thus: cell-based. The settings on record: read-out: Emax relative to dopamine, β-arrestin assay D3.

For the molecule `CN1CCc2cccc3c2[C@H]1Cc1ccc(O)c(O)c1-3` [Apomorphine], the Emax in assay [1] worked out at 28%; in assay [2] it was 52%; in assay [3], 38%; in assay [5], 83%; in assay [6], 90%; in assay [7], 89%. For the same molecule, the 5HT2A antagonist actions result in assay [4] is “weak”.
